The nature of the data set: Solubility of the carrier compound. The data set is classed as physicochemical.

Converted amounts (≈) assume the structure as drawn. Where two headings read alike, the source gives them in different places.

In general, solubility refers to how much of the substance goes into solution per volume.

For `CC(C(=O)O)c1ccc(NC(=O)c2ccccc2O)cc1` (centres unmarked) [Example 1, 2-(4-(N-salicyloyl)aminophenyl)propionic acid], the solubility (aqueous NaOH solution, aqueous buffer, thermodynamic from solid, 200 mg+350 μl 2N NaOH+650 μl H2O, pH 7.67, read-out: Solubility) is 200 mg/mL (≈ 701 mM).

`CC(C(=O)[O-])c1ccc(NC(=O)c2ccccc2O)cc1.[Na+]` (centres unmarked) [Example 2, sodium 2-(4-(N-salicyloyl)aminophenyl)propionate] came in with a solubility (clear solution, pH=6.85) of 200 mg/mL.

For the origin of these results see patent US6642411B1, “Compounds and compositions for delivering active agents” (Emisphere Technologies, Inc., priority 1998, dated 2003).
